This passage reports IC50 results from ChEMBL document CHEMBL1158028, “Triterpene saponins from Eryngium campestre” (J Nat Prod, 2006).

The nature of experiment [1]: Cytotoxicity against human HCT 116 cells by MTT assay. The format is functional, cell-based.
For the next experiment, the system named is HT-29. Kind of experiment: Cytotoxicity against human HT-29 cells by MTT assay. The format is functional, cell-based. On the technique in general: Tetrazolium dyes change colour on reduction, which living cells bring about.

Structures are written as SMILES. In brackets after ≈: the same amount, converted by molar mass.

Regarding `CC(C)=CC(=O)O[C@H]1CC(C)(C)C[C@H]2C3=CC[C@@H]4[C@@]5(C)CC[C@H](O[C@@H]6O[C@H](C(=O)O)[C@@H](O[C@H]7O[C@H](C)[C@@H](O)[C@H](O)[C@@H]7O)[C@H](O)[C@H]6O[C@@H]6O[C@H](CO)[C@@H](O)[C@H](O)[C@H]6O)C(C)(C)[C@@H]5CC[C@@]4(C)[C@]3(C)[C@@H](O)[C@@H](O)[C@@]12CO`, the IC50 (in experiment [1]; with HT-29) was 40 µg/mL (≈ 37.8 µM) throughout.
Take `C/C=C(/C)C(=O)O[C@H]1[C@H](O)C(C)(C)C[C@H]2C3=CC[C@@H]4[C@@]5(C)CC[C@H](O[C@@H]6O[C@H](C(=O)O)[C@@H](O[C@@H]7O[C@@H](C)[C@H](O)[C@@H](O)[C@H]7O)[C@H](O)[C@H]6O[C@H]6O[C@@H](CO)[C@H](O)[C@@H](O)[C@@H]6O)C(C)(C)[C@@H]5CC[C@@]4(C)[C@]3(C)[C@@H](O)[C@@H](O)[C@]21CO`: the 50% inhibitory concentration (IC50) (in experiment [1]; in the experiment on HT-29) was above 100 µg/mL each time.
Turning to `CC(C)=CC(=O)O[C@H]1CC(C)(C)C[C@H]2C3=CC[C@@H]4[C@@]5(C)CC[C@H](O[C@@H]6O[C@H](C(=O)O)[C@@H](O)[C@H](O)[C@H]6O[C@H]6O[C@H](C)[C@@H](O)[C@H](O)[C@@H]6O)C(C)(C)[C@@H]5CC[C@@]4(C)[C@]3(C)[C@@H](O)[C@@H](O)[C@@]12CO`, the 50% inhibitory concentration (IC50) (in experiment [1]; in the experiment on HT-29) was 40 µg/mL (≈ 44.7 µM) in each case.
Take `C/C=C(/C)C(=O)O[C@H]1[C@H](O)C(C)(C)C[C@H]2C3=CC[C@@H]4[C@@]5(C)CC[C@H](O[C@@H]6O[C@H](C(=O)O)[C@@H](O)[C@H](O)[C@H]6O[C@H]6O[C@H](C)[C@@H](O)[C@H](O)[C@@H]6O)C(C)(C)[C@@H]5CC[C@@]4(C)[C@]3(C)[C@@H](O)[C@@H](O)[C@]21COC(C)=O`: the 50% inhibitory concentration (IC50) (in experiment [1]; in the experiment on HT-29) was above 100 µg/mL in each case.
As to `C/C=C(/C)C(=O)O[C@H]1[C@H](OC(C)=O)C(C)(C)C[C@H]2C3=CC[C@@H]4[C@@]5(C)CC[C@H](O[C@@H]6O[C@H](C(=O)O)[C@@H](O)[C@H](O)[C@H]6O[C@H]6O[C@H](C)[C@@H](O)[C@H](O)[C@@H]6O)C(C)(C)[C@@H]5CC[C@@]4(C)[C@]3(C)[C@@H](O)[C@@H](O)[C@]21CO`, the IC50 (in experiment [1]; in the experiment on HT-29) was 40 µg/mL (≈ 42 µM) in each case.
Consider `CC(=O)OC1[C@H](OC(=O)C=C(C)C)[C@]2(CO)[C@H](O)[C@H](O)[C@]3(C)C(=CC[C@@H]4[C@@]5(C)CC[C@H](O[C@@H]6O[C@H](C(=O)O)[C@@H](O)[C@H](O)[C@H]6O[C@H]6O[C@H](C)[C@@H](O)[C@H](O)[C@@H]6O)C(C)(C)[C@@H]5CC[C@]43C)[C@@H]2CC1(C)C` (stereo not given in full), for which the IC50 (in experiment [1]; with HT-29) was 40 µg/mL (≈ 42 µM) each time.
For `C/C=C(/C)C(=O)O[C@H]1[C@H](O)C(C)(C)C[C@H]2C3=CC[C@@H]4[C@@]5(C)CC[C@H](O[C@@H]6O[C@H](C(=O)O)[C@@H](O)[C@H](O)[C@H]6O[C@H]6O[C@H](C)[C@@H](O)[C@H](O)[C@@H]6O)C(C)(C)[C@@H]5CC[C@@]4(C)[C@]3(C)[C@@H](O)[C@@H](O)[C@]21CO`, the IC50 (in experiment [1]; in the experiment with HT-29) was 40 µg/mL (≈ 43.9 µM) throughout.
Take `CC(=O)O[C@H]1C(=O)[C@@]2(C)[C@H]([C@H](OC(=O)c3ccccc3)[C@]3(O)C[C@H](OC(=O)[C@H](O)[C@@H](NC(=O)c4ccccc4)c4ccccc4)C(C)=C1C3(C)C)[C@]1(OC(C)=O)CO[C@@H]1C[C@@H]2O` [PACLITAXEL]: inhibition in experiment [1] was half-maximal at 0.008 µg/mL (≈ 0.00937 µM) (IC50).

The term IC50 denotes the point on the concentration scale where inhibition reaches its midpoint. A low value points to inhibition by little substance.
